Measurements as given in ChEMBL document CHEMBL4622970, “Design, Synthesis, and Evaluation of New Quinazolinone Derivatives that Inhibit Bloom Syndrome Protein (BLM) Helicase, Trigger DNA Damage at the Telomere Region, and Synergize with PARP Inhibitors” (J Med Chem, 2020).
Active and inactive are the calls of the source. No cut-off for these calls is given here.

Assays:
[1] = target: T1, RecQ-like DNA helicase BLM (Homo sapiens, UniProt P54132); test: Inhibition of BLM in human HCT116 cells assessed as increase in gamma-H2AX level at 2 uM measured after 24 hrs by Western blot analysis; assay type: cell-based; settings: HCT-116
[2] = target: RecQ-like DNA helicase BLM (Homo sapiens, UniProt P54132, I1168A); test: Binding affinity to His-tagged BLM I1168A mutant (unknown origin) expressed in Escherichia coli BL21 (DE3) cells by isothermal calorimetric titration assay
[3] = target: T1, RecQ-like DNA helicase BLM; test: Inhibition of BLM in human HCT116 cells assessed as increase in gamma-H2AX-TRF2 foci colocalization mediated telomere dysfunction-induced foci formation measured after 24 hrs by DAPI staining based immunofluorescence assay; assay type: cell-based; settings: HCT-116
HCT-116 [4] = test: Induction of apoptosis in human HCT116 cells measured after 48 hrs by Annexin V-FITC/propidium iodide staining based flow cytometry; assay type: functional, cell-based
[5] = target: T1, RecQ-like DNA helicase BLM; test: Inhibition of BLM in human HCT116 cells assessed as increase in gamma-H2AX foci at 1 to 4 uM measured after 24 hrs by DAPI staining based immunofluorescence assay; assay type: cell-based; settings: HCT-116
[6] = target: T1, RecQ-like DNA helicase BLM; test: Inhibition of BLM in human HCT116 cells assessed as increase in gamma-H2AX-TRF2 foci colocalization mediated telomere dysfunction-induced foci formation at 1 uM measured after 24 hrs in presence of […] inhibitor niraparib by DAPI staining based immunofluorescence assay; assay type: cell-based; settings: HCT-116
[7] = target: T1, RecQ-like DNA helicase BLM; test: Inhibition of BLM in human HCT116 cells assessed as upregulation of ATM phosphorylation up to 4 uM by Western blot analysis; assay type: cell-based; settings: HCT-116
[8] = target: T1, RecQ-like DNA helicase BLM; test: Inhibition of BLM in human HCT116 cells assessed as down regulation of HRR level at 0.5 uM measured after 24 hrs by luciferase reporter gene assay; assay type: cell-based; settings: HCT-116
HCT-116 [9] = test: Induction of apoptosis in human HCT116 cells assessed as upregulation of cleaved caspase-7 expression up to 4 uM measured after 48 hrs by Western blot analysis; assay type: functional, cell-based
[10] = target: T1, RecQ-like DNA helicase BLM; test: Inhibition of BLM in human HCT116 cells assessed as potentiation of olaparib-induced cytotoxicity by measuring combination index at 1 to 2 uM measured after 48 hrs by MTT assay; assay type: cell-based; settings: HCT-116
[11] = target: T1, RecQ-like DNA helicase BLM; test: Inhibition of BLM in human HCT116 cells assessed as potentiation of olaparib-induced cytotoxicity at 1 to 2 uM measured after 48 hrs by MTT assay relative to olaparib alone; assay type: cell-based; settings: HCT-116
HCT-116 [12] = test: Induction of apoptosis in human HCT116 cells assessed as upregulation of cleaved PARP expression up to 4 uM measured after 48 hrs by Western blot analysis; assay type: functional, cell-based
[13] = target: T1, RecQ-like DNA helicase BLM; test: Inhibition of BLM in human HCT116 cells assessed as upregulation of CHK1 phosphorylation by Western blot analysis; assay type: cell-based; settings: HCT-116
[14] = target: T1, RecQ-like DNA helicase BLM; test: Inhibition of His-tagged BLM (642 to 1296 residues) (unknown origin) expressed in Escherichia coli BL21 (DE3) cells assessed as reduction in DNA unwinding activity using 5'-biotin-labeled forked DNA as substrate preincubated for 1 hr followed by substrate addition and measured after 1 hr by electrophoretic mobility shift assay
[15] = target: T1, RecQ-like DNA helicase BLM; test: Binding affinity to BLM in human HCT116 cells cotransfected with DSB model and I-SceI plasmid assessed as reduction in recruitment of protein to DSB site in DNA at 2 uM measured after 24 hrs by chromatin immunoprecipitation assay; assay type: cell-based; settings: HCT-116
[16] = target: T1, RecQ-like DNA helicase BLM; test: Inhibition of BLM in human HCT116 cells assessed as induction of telomere end loss at 4 uM by fluorescent in situ hybridization; assay type: cell-based; settings: HCT-116
HCT-116 [17] = test: Cytotoxicity against human HCT116 cells by MTT assay; assay type: functional, cell-based
HCT-116 [18] = test: Induction of apoptosis in human HCT116 cells assessed as upregulation of cleaved caspase-3 expression up to 4 uM measured after 48 hrs by Western blot analysis; assay type: functional, cell-based
[19] = target: T1, RecQ-like DNA helicase BLM; test: Binding affinity to His-tagged BLM (642 to 1296 residues) (unknown origin) expressed in Escherichia coli BL21 (DE3) cells assessed as inhibition of protein interaction with 5'-biotin-labeled forked DNA measured after 1 hr by ELISA
[20] = target: T1, RecQ-like DNA helicase BLM; test: Binding affinity to BLM in human HCT116 cells cotransfected with DSB model and I-SceI plasmid assessed as reduction in recruitment of protein to DNA region distant from DSB site at 2 uM measured after 24 hrs by chromatin immunoprecipitation assay; assay type: cell-based; settings: HCT-116
[21] = target: T1, RecQ-like DNA helicase BLM; test: Binding affinity to wild-type His-tagged BLM (642 to 1296 residues) (unknown origin) expressed in Escherichia coli BL21 (DE3) cells by isothermal calorimetric titration assay
HCT-116 [22] = test: Induction of apoptosis in human HCT116 cells assessed as apoptotic cell population at 4 uM measured after 48 hrs by Annexin V-FITC/propidium iodide staining based flow cytometry (reference value: 17.4%); assay type: functional
[23] = target: T1, RecQ-like DNA helicase BLM; test: Inhibition of BLM in human HCT116 cells assessed as potentiation of cisplatin-induced cytotoxicity by measuring combination index at 1 to 2 uM measured after 48 hrs by MTT assay; assay type: cell-based; settings: HCT-116
[24] = target: T1, RecQ-like DNA helicase BLM; test: Inhibition of BLM in human HCT116 cells assessed as potentiation of BIBR1532-induced cytotoxicity by measuring combination index at 1 to 2 uM measured after 48 hrs by MTT assay; assay type: cell-based; settings: HCT-116
HCT-116 [25] = test: Antiproliferative activity against wild-type human HCT116 cells assessed as inhibition of cell proliferation by real-time cellular analysis; assay type: functional, cell-based
[26] = target: T1, RecQ-like DNA helicase BLM; test: Inhibition of BLM in human HCT116 cells assessed as potentiation of niraparib-induced cytotoxicity at 1 to 2 uM measured after 48 hrs by MTT assay relative to niraparib alone; assay type: cell-based; settings: HCT-116
[27] = target: T1, RecQ-like DNA helicase BLM; test: Inhibition of BLM in human HCT116 cells assessed as potentiation of niraparib-induced cytotoxicity by measuring combination index at 1 to 2 uM measured after 48 hrs by MTT assay; assay type: cell-based; settings: HCT-116
[28] = target: T1, RecQ-like DNA helicase BLM; test: Inhibition of BLM in human HCT116 cells assessed as upregulation of ATR phosphorylation up to 4 uM by Western blot analysis; assay type: cell-based; settings: HCT-116
[29] = target: T1, RecQ-like DNA helicase BLM; test: Inhibition of BLM in human HCT116 cells assessed as increase in gamma-H2AX-TRF2 foci colocalization mediated telomere dysfunction-induced foci formation at 1 to 4 uM measured after 24 hrs by DAPI staining based immunofluorescence assay relative to total gamma-H2AX foci; assay type: cell-based; settings: HCT-116
HCT-116 [30] = test: Antiproliferative activity against human HCT116 cells harboring siBLM assessed as inhibition of cell proliferation at 1 to 2 uM by real-time cellular analysis; assay type: functional, cell-based
[31] = target: T1, RecQ-like DNA helicase BLM; test: Inhibition of BLM in human HCT116 cells assessed as upregulation of CHK2 phosphorylation by Western blot analysis; assay type: cell-based; settings: HCT-116
[32] = target: RecQ-like DNA helicase BLM (Homo sapiens, UniProt P54132, H996A); test: Binding affinity to His-tagged BLM H996A mutant (unknown origin) expressed in Escherichia coli BL21 (DE3) cells by isothermal calorimetric titration assay
RecQ-like DNA helicase BLM (Homo sapiens, UniProt P54132, H996A), sequence (P54132 whole entry H996A): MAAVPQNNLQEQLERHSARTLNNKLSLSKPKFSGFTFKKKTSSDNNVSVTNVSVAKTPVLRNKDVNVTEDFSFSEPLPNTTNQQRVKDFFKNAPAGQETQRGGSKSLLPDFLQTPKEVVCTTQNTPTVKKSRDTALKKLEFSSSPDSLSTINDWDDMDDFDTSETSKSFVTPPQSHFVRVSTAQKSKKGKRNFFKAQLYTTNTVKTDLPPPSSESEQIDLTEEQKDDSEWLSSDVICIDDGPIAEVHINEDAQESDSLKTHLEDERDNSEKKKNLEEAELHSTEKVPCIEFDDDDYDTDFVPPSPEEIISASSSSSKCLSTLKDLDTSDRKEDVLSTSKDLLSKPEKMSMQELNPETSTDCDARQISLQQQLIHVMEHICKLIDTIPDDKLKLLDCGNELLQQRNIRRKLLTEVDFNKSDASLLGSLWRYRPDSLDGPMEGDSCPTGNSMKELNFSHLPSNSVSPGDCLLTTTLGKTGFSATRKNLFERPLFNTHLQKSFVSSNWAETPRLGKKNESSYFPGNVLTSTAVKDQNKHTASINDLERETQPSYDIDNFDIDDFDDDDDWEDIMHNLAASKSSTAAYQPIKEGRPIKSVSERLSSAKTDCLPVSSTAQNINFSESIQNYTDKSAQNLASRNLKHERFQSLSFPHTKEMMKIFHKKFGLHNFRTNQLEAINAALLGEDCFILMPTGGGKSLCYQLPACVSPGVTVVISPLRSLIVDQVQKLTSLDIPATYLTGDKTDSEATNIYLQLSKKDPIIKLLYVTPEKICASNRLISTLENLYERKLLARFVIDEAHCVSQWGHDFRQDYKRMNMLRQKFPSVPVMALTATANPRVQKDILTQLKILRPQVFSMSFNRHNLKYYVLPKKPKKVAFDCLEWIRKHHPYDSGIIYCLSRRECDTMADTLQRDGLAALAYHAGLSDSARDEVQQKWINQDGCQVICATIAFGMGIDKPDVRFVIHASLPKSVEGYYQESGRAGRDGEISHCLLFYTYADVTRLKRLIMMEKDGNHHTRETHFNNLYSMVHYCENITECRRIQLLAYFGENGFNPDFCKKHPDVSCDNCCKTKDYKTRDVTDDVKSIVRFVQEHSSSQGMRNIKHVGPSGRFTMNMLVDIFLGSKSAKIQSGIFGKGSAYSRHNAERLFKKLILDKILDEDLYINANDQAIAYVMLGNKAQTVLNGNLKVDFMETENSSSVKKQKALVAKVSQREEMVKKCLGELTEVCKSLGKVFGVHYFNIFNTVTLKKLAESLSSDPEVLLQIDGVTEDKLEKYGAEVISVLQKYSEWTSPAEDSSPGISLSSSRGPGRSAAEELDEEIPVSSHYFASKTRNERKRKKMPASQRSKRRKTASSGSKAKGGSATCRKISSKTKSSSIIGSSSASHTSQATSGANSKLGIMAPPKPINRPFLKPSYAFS

T1 sequence (P54132 whole entry): as the sequence (P54132 whole entry H996A) above, with A996H counted along it
RecQ-like DNA helicase BLM (Homo sapiens, UniProt P54132, I1168A), sequence (P54132 whole entry I1168A): as the sequence (P54132 whole entry H996A) above, with A996H, I1168A counted along it

With `CCN(CC)CCCNc1cc2nc(/C=C/c3ccc(C(C)C)cc3)n(CCCl)c(=O)c2cc1F` the inhibition [1] was “Active”, the Kd [2] was 6540 nM and the inhibition [3] was “Dose-dependent effect”. The Activity (HCT-116 [4]) was “Dose-dependent effect”, the inhibition [5] was “Active” and the inhibition [6] was “Active”. For the same molecule, the inhibition [7] was “Active”, the inhibition [8] was “Active” and the Activity (HCT-116 [9]) was “Active”. The CI [10] was 0.4 to 0.8, the fold change (FC) [11] was 2 to 4 and the Activity (HCT-116 [12]) was “Active”. The inhibition [13] was “Dose-dependent effect”, the IC50 [14] was 800 nM and the Activity [15] was “Active”. For the same molecule, the inhibition [16] was “Active”, the Activity (HCT-116 [17]) was “Active” and the Activity (HCT-116 [18]) was “Active”. The IC50 [19] was 8700 nM, the Activity [20] was “Active” and the Kd [21] was 760 nM. For the same molecule, the Activity (HCT-116 [22]) was 76%, the CI [23] was 0.6 to 0.8 and the CI [24] was 0.5 to 0.8. The inhibition (HCT-116 [25]) was “Dose-dependent effect”, the fold change (FC) [26] was 2 to 4 and the CI [27] was 0.4 to 0.8. The inhibition [28] was “Active”, the inhibition [29] was over 70% and the inhibition (HCT-116 [30]) was “inactive”. For the same molecule, the inhibition [31] was “Dose-dependent effect” and the Kd [32] was 1400 nM.
